Measured values published in patent US20140162966A1, “NANOPARTICLES FOR DELIVERY OF LIGANDS” (The U.S.A, as represented by the Secretary, Department of …, priority 2012, published 2014).

How the values were obtained:
4T1-fluc cells = assay: cellular uptake of Cy3-labeled siRNA; assay type: cell-based
Protocol: CD44 expression was confirmed by flow cytometry. The red fluoresecence from Cy3-labeled siRNA was more intense in 4T1-fluc cells that were treated with siRNA/HADPA-Zn-NPs than in the cells that were treated with Lipofectamine 2000 (Lipo2K)/siRNA. […] Furthermore, the uptake of siRNA/HADPA-Zn-NPs into 4T1-fluc cells was 3.7±0.5-fold higher than the uptake into 293T cells.

[1] = tested on: subcutaneous 4T1-fluc tumors; assay: in vivo gene silencing in 4T1-fluc xenograft mouse model (in vivo BLI); design: species or system Balb/C mice; conditions: 72 hours after intratumor injection; siLuc 100 pmol and/or NPs 200 ug in 80 uL
Protocol: Four groups of Balb/C mice (n=5 per group) with subcutaneous 4T1-fluc tumors were treated with an intratumor injection of 80 uL of a buffer solution that contained siLuc/HADPA-Zn-NPs (100 pmol/200 ug), HADPA-Zn-NPs (200 ug), naked siLuc (100 pmol), or phosphate-buffered saline (PBS). The silencing of the fluc gene was measured by in vivo BLI. […] In contrast the control groups had increased levels of fluc expression ((30.0±4.1) %, (38.2±3.9)%, and (39.2±5.3)%, for HADPA-Zn-NPs, naked siRNA, and PBS, respectively, FIG. 8). The tumors from each group were harvested and weighed after BLI to determine whether the apparent gene silencing effect was a result of a reduction in the volume of the tumors as a consequence of the toxicity of the formulation. As shown by the […] testing, there was no significant difference in the neoplastic weights of the tumors between the various groups.

Substance	fluorescence observed in treated cells (4T1-fluc cells)	relative level of fluc expression [1]
Zn-dipicolylamine [Zn-DPA]	no fluorescence was observed	
naked siRNA: siRNA that targets the firefly luciferase gene, SEQUENCE ID NO. 1 and 2, without carrier (chain 1 GCACUCUGAUUGACAAAUACGAUUU; chain 2 AAAUCGUAUUUGUCAAUCAGAGUGC; listed as RNA, chemistry not given here)		38.2±3.9%
